In US10457691B2, “Macrocyclic kinase inhibitors and uses thereof” (Dana-Farber Cancer Institute, Inc., priority 2014, dated 2019):

Key:
Assay type in all cases: biochemical
Conditions in all cases: read-out: Activity of the protein kinase when treated with compound I-1 (% control)
DDR2 = DDR2 (Homo sapiens, UniProt Q16832); experiment: Protein kinase assay ([γ-32P] ATP), DDR2
Description: (§1) In another set of experiments, the activities of the compounds described herein against various protein kinases were determined according to the methods reported in Hastie et al., Nature Protocols, 2006, 1, 968-971.
(§2) Enzyme dilution buffer. This buffer consisted of 50 mM Tris-HCl, pH 7.5, 0.1 mM EGTA, 1 mg ml^−1 bovine serum albumin and 0.1% (vol/vol) 2-mercaptoethanol.
(§3) 10× concentrated assay buffer. An assay buffer of 500 mM Tris-HCl, pH 7.5, 1 mM EGTA, and 100 mM magnesium acetate was used for assay of a wide variety of protein kinases. In some experiments, other cofactors were included (e.g., calcium ions and calmodulin were included for assay of calcium-calmodulindependent protein kinases).
(§4) 1 mM [γ-^32P] ATP. The specific activity of the [γ-^32P] ATP solution was 1×10^5 to 1×10^6 c.p.m. per nmol depending on what was needed to produce an optimal signal/noise ratio. […] To measure the concentration of ATP, a sample of such a stock solution was diluted to 20 μM, and the absorbance of the diluted sample was measured at 259 nm. The absorbance of a 20-μM stock solution of ATP at 259 nm was about 0.31. […] ATP to produce a radioactivity of 1×10^5 to 1×10^6 c.p.m. per nmol. […]
(§5) 13) Measure radioactivity in the samples by Cerenkov counting (e.g., without liquid scintillation fluid) in a liquid scintillation counter using a “^32P program”. […]

DYRK2 = DYRK2 (Homo sapiens, UniProt Q92630); experiment: Protein kinase assay ([γ-32P] ATP), DYRK2
Sequence of DYRK2 (Q92630 whole entry): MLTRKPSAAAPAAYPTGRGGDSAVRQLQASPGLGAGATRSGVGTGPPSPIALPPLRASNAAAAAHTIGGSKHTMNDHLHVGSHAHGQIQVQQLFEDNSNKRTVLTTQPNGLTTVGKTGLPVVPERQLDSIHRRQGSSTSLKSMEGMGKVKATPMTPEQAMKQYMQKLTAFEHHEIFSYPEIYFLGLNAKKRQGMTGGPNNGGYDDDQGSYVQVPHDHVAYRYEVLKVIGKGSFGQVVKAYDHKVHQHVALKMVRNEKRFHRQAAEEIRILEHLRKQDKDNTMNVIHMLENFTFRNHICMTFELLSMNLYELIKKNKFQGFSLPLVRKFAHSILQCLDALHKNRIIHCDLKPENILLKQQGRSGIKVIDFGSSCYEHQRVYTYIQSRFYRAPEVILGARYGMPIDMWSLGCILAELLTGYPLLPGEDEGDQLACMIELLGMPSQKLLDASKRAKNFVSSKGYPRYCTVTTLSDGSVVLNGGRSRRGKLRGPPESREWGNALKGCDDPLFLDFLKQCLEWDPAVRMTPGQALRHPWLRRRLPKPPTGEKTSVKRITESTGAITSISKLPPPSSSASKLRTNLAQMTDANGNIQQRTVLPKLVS
Description: as §1, §2, §3, §4, §5

ERK1 = ERK1 (Homo sapiens, UniProt P27361); experiment: Protein kinase assay ([γ-32P] ATP), ERK1
Sequence of ERK1 (P27361 whole entry): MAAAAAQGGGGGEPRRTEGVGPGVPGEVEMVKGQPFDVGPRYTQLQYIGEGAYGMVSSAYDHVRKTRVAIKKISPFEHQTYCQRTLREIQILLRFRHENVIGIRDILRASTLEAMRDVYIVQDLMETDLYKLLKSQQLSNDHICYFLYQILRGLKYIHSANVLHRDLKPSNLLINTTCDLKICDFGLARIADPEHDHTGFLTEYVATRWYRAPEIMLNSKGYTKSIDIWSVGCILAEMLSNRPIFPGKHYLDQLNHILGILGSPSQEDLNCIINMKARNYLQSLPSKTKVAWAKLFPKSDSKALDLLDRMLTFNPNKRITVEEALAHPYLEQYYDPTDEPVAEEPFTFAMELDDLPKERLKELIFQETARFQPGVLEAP
Description: as §1, §2, §3, §4, §5

IKKb = IKKb (Homo sapiens, UniProt O14920); experiment: Protein kinase assay ([γ-32P] ATP), IKKb
Description: as §1, §2, §3, §4, §5

MKK2 = MKK2 (Homo sapiens, UniProt P36507); experiment: Protein kinase assay ([γ-32P] ATP), MKK2
Sequence of MKK2 (P36507 whole entry): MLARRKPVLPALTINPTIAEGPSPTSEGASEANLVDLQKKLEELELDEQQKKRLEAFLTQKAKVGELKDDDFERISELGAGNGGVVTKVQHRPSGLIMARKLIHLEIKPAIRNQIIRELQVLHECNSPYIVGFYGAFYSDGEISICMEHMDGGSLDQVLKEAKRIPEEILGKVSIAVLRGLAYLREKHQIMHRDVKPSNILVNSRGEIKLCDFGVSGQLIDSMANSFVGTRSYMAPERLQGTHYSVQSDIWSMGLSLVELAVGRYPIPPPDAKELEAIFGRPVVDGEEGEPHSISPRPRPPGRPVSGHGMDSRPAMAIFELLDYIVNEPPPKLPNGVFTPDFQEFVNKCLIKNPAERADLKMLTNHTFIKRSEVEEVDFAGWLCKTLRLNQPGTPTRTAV
Description: as §1, §2, §3, §4, §5

MLK3 = MLK3 (Homo sapiens, UniProt Q16584); experiment: Protein kinase assay ([γ-32P] ATP), MLK3
Sequence of MLK3 (Q16584 whole entry): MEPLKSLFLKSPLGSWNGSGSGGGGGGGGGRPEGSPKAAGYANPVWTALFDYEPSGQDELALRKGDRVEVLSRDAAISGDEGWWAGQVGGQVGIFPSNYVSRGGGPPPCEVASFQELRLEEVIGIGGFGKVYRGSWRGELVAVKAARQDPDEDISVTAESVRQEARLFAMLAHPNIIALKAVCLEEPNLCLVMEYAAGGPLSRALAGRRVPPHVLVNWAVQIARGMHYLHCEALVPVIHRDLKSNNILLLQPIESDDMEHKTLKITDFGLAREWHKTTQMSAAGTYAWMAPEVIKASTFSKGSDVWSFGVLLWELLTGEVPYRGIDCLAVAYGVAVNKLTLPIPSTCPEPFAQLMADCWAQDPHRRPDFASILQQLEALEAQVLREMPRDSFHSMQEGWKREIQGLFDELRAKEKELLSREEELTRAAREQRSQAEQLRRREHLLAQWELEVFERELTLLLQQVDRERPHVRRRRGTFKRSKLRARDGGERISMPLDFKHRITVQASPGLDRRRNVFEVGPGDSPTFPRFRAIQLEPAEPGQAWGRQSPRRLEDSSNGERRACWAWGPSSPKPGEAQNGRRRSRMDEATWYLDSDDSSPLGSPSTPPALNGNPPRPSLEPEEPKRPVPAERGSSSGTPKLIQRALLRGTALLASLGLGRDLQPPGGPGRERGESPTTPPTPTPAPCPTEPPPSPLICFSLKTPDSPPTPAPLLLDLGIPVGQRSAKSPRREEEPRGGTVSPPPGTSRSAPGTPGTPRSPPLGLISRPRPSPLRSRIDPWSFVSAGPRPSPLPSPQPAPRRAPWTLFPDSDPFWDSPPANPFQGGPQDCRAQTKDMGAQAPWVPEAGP
Description: as §1, §2, §3, §4, §5

MST2 = MST2 (Homo sapiens, UniProt Q13188); experiment: Protein kinase assay ([γ-32P] ATP), MST2
Description: as §1, §2, §3, §4, §5

p38g MAPK = p38g MAPK (Homo sapiens, UniProt P53778); experiment: Protein kinase assay ([γ-32P] ATP), p38g MAPK
Description: as §1, §2, §3, §4, §5

PAK6 = PAK6 (Homo sapiens, UniProt Q9NQU5); experiment: Protein kinase assay ([γ-32P] ATP), PAK6
Sequence of PAK6 (Q9NQU5 whole entry): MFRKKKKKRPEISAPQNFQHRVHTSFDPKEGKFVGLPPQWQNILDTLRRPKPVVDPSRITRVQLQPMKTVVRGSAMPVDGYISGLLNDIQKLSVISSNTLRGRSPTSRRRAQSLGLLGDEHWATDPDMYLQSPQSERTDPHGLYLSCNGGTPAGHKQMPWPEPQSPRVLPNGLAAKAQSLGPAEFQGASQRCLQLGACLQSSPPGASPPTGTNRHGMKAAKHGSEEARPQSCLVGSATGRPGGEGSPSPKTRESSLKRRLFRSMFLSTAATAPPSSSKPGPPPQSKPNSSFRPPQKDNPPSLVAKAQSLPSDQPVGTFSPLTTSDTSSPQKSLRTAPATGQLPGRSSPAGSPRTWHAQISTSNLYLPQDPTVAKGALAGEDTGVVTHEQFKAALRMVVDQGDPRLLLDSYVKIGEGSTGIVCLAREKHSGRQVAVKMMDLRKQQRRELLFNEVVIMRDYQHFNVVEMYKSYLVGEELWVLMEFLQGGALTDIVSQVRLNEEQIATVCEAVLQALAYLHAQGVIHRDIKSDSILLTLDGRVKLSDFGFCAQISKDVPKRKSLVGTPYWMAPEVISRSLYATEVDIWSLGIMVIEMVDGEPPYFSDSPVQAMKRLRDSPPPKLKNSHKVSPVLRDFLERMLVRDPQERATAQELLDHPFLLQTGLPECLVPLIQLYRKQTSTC
Description: as §1, §2, §3, §4, §5

PIM2 = PIM2 (Homo sapiens, UniProt Q9P1W9); experiment: Protein kinase assay ([γ-32P] ATP), PIM2
Sequence of PIM2 (Q9P1W9 whole entry): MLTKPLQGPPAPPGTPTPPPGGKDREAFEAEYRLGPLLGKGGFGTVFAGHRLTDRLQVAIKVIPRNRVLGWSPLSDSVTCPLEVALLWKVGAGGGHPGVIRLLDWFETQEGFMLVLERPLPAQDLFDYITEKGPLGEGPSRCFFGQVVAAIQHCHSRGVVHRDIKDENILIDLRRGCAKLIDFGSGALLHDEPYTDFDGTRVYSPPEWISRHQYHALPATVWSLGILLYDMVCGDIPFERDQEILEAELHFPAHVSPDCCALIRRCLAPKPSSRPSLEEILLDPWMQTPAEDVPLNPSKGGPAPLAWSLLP
Description: as §1, §2, §3, §4, §5

PIM3 = PIM3 (Homo sapiens, UniProt Q86V86); experiment: Protein kinase assay ([γ-32P] ATP), PIM3
Description: as §1, §2, §3, §4, §5

PKCa = PKCa (Homo sapiens, UniProt P17252); experiment: Protein kinase assay ([γ-32P] ATP), PKCa
Description: as §1, §2, §3, §4, §5

SmMLCK = SmMLCK (Homo sapiens, UniProt Q15746); experiment: Protein kinase assay ([γ-32P] ATP), SmMLCK
Sequence of SmMLCK (Q15746 923-1914): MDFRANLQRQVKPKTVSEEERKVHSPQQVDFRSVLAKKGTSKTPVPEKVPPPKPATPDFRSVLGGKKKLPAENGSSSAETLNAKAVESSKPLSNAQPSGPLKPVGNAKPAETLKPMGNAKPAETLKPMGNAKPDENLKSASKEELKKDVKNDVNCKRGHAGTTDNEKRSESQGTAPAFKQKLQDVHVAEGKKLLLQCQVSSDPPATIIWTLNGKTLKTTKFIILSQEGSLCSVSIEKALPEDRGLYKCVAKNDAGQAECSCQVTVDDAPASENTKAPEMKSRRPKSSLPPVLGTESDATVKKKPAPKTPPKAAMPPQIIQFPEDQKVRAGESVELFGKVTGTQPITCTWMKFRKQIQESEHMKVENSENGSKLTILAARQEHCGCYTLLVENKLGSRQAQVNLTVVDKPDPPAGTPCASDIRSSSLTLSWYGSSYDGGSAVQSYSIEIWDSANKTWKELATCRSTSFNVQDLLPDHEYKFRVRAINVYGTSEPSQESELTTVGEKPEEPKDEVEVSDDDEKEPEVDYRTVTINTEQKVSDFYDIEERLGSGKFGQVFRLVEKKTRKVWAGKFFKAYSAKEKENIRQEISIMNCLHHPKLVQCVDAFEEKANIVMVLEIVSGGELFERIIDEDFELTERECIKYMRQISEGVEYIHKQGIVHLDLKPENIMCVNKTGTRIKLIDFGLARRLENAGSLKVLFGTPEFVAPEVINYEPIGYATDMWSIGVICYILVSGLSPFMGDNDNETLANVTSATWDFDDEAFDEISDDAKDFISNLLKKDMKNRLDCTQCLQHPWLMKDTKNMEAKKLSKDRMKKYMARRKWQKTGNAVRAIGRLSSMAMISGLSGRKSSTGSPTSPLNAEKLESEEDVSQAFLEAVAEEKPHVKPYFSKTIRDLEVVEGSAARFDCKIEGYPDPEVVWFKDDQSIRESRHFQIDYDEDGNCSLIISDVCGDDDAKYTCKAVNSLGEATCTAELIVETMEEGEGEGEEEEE
Description: as §1, §2, §3, §4, §5

SYK = SYK (Homo sapiens, UniProt P43405); experiment: Protein kinase assay ([γ-32P] ATP), SYK
Description: as §1, §2, §3, §4, §5

TIE2 = TIE2 (Homo sapiens, UniProt Q02763); experiment: Protein kinase assay ([γ-32P] ATP), TIE2
Description: as §1, §2, §3, §4, §5

TrkA = TrkA (Homo sapiens, UniProt P04629); experiment: Protein kinase assay ([γ-32P] ATP), TrkA
Sequence of TrkA (P04629 33-796, species assumed): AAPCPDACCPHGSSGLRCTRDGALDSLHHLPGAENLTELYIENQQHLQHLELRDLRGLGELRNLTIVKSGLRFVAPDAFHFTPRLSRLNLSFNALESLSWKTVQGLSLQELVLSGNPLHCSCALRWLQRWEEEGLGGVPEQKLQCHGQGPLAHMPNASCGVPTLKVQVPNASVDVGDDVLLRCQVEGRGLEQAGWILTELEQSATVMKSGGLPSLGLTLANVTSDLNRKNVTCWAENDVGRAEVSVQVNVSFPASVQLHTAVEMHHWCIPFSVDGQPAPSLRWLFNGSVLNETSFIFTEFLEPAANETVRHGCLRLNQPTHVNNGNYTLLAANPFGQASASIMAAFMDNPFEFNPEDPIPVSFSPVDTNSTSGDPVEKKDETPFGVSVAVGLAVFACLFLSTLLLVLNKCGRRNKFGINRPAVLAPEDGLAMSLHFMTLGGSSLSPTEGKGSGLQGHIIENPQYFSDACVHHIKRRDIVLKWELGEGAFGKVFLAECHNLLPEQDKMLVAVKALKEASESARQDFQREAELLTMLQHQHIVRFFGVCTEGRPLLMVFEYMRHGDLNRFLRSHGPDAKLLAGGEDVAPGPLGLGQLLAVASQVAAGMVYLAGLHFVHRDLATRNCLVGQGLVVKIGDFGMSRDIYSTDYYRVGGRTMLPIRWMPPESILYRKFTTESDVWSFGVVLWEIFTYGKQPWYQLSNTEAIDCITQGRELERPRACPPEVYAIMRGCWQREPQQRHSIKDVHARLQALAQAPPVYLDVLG
Description: as §1, §2, §3, §4, §5

ZAP70 = ZAP70 (Homo sapiens, UniProt P43403); experiment: Protein kinase assay ([γ-32P] ATP), ZAP70
Description: as §1, §2, §3, §4, §5

[1] = 0.1 μM of compound I-1, DMSO control = 100%
[2] = 1 μM of compound I-1, DMSO control = 100%

Cc1cccc(C)c1NC(=O)N1C/C=C\COc2cccc(c2)Nc2cc1ncn2 [Compound I-1]
remaining activity at 0.1 µM (DDR2; [1]): 28%
remaining activity at 1 µM (DDR2; [2]): 3%
remaining activity at 0.1 µM (DYRK2; [1]): 103%
remaining activity at 1 µM (DYRK2; [2]): 76%
remaining activity at 0.1 µM (ERK1; [1]): 97%
remaining activity at 1 µM (ERK1; [2]): 87%
remaining activity at 0.1 µM (IKKb; [1]): 103%
remaining activity at 1 µM (IKKb; [2]): 77%
remaining activity at 0.1 µM (MKK2; [1]): 119%
remaining activity at 1 µM (MKK2; [2]): 77%
remaining activity at 0.1 µM (MLK3; [1]): 94%
remaining activity at 1 µM (MLK3; [2]): 39%
remaining activity at 0.1 µM (MST2; [1]): 99%
remaining activity at 1 µM (MST2; [2]): 98%
remaining activity at 0.1 µM (p38g MAPK; [1]): 101%
remaining activity at 1 µM (p38g MAPK; [2]): 88%
remaining activity at 0.1 µM (PAK6; [1]): 101%
remaining activity at 1 µM (PAK6; [2]): 78%
remaining activity at 0.1 µM (PIM2; [1]): 92%
remaining activity at 1 µM (PIM2; [2]): 90%
remaining activity at 0.1 µM (PIM3; [1]): 93%
remaining activity at 1 µM (PIM3; [2]): 84%
remaining activity at 0.1 µM (PKCa; [1]): 101%
remaining activity at 1 µM (PKCa; [2]): 91%
remaining activity at 0.1 µM (SmMLCK; [1]): 91%
remaining activity at 1 µM (SmMLCK; [2]): 85%
remaining activity at 0.1 µM (SYK; [1]): 100%
remaining activity at 1 µM (SYK; [2]): 91%
remaining activity at 0.1 µM (TIE2; [1]): 52%
remaining activity at 1 µM (TIE2; [2]): 10%
remaining activity at 0.1 µM (TrkA; [1]): 54%
remaining activity at 1 µM (TrkA; [2]): 76%
remaining activity at 0.1 µM (ZAP70; [1]): 90%
remaining activity at 1 µM (ZAP70; [2]): 98%
